Experimental data from publication PMC8786951, “Identification of an allatostatin C signaling system in mollusc Aplysia” (Scientific Reports, 2022).
“And” between values parts separate entries of the source, which are not always exact repeats. Identical values can stand only once. Like-named read-outs stand apart in the source and are kept apart here. Where a SMILES comes first, the peptide text is derived from it. Bridges are numbered along the chain shown (N, C = ends).

Columns and labels:
AstC-R = target: T1, AstC-R (Aplysia californica, UniProt A0ABM0JJJ7); assay: IP1 accumulation assay, CHO-K1 cells expressing putative receptor AstC-R; assay type: cell-based; conditions: for EC50: IP1 accumulation, CHO cells co-transfected with AstC-R and Gα16 plasmids, peptide 10^–12 M to 10^–4 M; for Screening: IP1 concentration on AstC-R at 10^–5 M vs 10^–10 M: CHO cells co-transfected with AstC-R and Gα16, 10^–10 M used as control, paired t-test, n = 6 (AstC' n = 5; AstCG-DP, SPTR n = 3); for IP1 response of AstC-R, preliminary experiments: CHO cells transfected with receptor plasmid only, without Gα16
T1 sequence (A0ABM0JJJ7 1-425): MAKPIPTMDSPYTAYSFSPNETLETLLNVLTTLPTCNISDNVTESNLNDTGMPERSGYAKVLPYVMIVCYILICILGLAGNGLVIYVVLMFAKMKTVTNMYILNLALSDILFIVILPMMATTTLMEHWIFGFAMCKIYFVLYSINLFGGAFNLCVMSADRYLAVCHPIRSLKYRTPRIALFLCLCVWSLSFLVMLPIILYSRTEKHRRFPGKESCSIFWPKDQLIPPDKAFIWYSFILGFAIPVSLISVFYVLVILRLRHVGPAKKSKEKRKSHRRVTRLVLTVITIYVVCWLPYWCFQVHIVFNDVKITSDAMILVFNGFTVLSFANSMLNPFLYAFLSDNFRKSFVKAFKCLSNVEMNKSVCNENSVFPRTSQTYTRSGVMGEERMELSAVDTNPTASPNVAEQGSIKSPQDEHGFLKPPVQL
Text: Because Gα16 is a promiscuous Gαq protein that will bind to most GPCRs[10],[53], this procedure would ensure an IP1 response when a potential ligand binds to its GPCR.
Inositol monophosphate 1 (IP1) accumulation assay measures concentration of IP1, that is hydrolyzed from the second messenger, […] (IP3), generated by Gαq pathway when a G-protein coupled receptor (GPCR) expressed in CHO-K1 cells is activated by an appropriate ligand. In order to express the Aplysia putative receptors transiently in CHO-K1, the cDNA was cloned into the mammalian expression vector pcDNA3.1( +). […] Transfection experiments were performed when the cells were grown to 70–90% confluence. In preliminary experiments, for each dish (60-mm diameter), 4 μg of the putative receptor plasmids [in pcDNA3.1( +)] were mixed with 400 μl of Opti-MEM (Gibco, 11058021), followed by the addition of 15 μl of Turbofect (Thermo Fisher Scientific, R0531). […] The CHO cells with the reagents added above were mixed gently, and incubated at room temperature for 15 min. The DNA/Turbofect mixture dropwise was then added to the dish, and the cells were incubated at 37 °C in 5% CO2 overnight. The next day, the cells were trypsinized and reseeded in opaque white 96-well half-area (Corning, 3688) or 384-well tissue culture-treated plates (Corning, 3570) at a density of 20,000 cells/well in F-12K and 10% FBS and incubated at 37 °C in 5% CO2 overnight. On the third day, the activation of the putative receptor was detected by monitoring IP1 accumulation using IP1 detection kit (Cisbio, 62IPAPEB) in Tecan Spark. Except for using 0.5 × reagent, all other procedures were performed in accordance with the IP1 detection kit manufacturer’s instructions. Peptides are synthesized by Sangon Biotech, Guoping Pharmaceutical or ChinaPeptides (Supplementary Fig. 4), and are aliquoted in 50 nmol EP tubes, stored at −20 °C until use.

Class-A_GPCR1 = assay: IP1 accumulation assay, CHO-K1 cells expressing putative receptor Class-A_GPCR1 (control); assay type: cell-based, Aplysia californica; conditions: CHO cells transfected with receptor plasmid only, without Gα16
Text: We cloned AstC-R and Class-A_GPCR1 into pcDNA3.1 plasmids, and expressed them in CHO cells. We then used the IP1 accumulation assay that detects IP1 generated in the Gαq pathway (see Methods) to determine whether our predicted Aplysia peptides (i.e., AstC or AstCG-DP) and other related peptides which we synthesized (see Fig. 7G) could activate the receptors. In preliminary experiments, we only transfected plasmids for a putative receptor in CHO cells. […] Thus, for all the experiments shown in Fig. 7, we co-transfected plasmids for the putative receptor and Gα16 plasmids in CHO cells. Because Gα16 is a promiscuous Gαq protein that will bind to most GPCRs[10],[53], this procedure would ensure an IP1 response when a potential ligand binds to its GPCR.
Inositol monophosphate 1 (IP1) accumulation assay measures concentration of IP1, that is hydrolyzed from the second messenger, […] (IP3), generated by Gαq pathway when a G-protein coupled receptor (GPCR) expressed in CHO-K1 cells is activated by an appropriate ligand. In order to express the Aplysia putative receptors transiently in CHO-K1, the cDNA was cloned into the mammalian expression vector pcDNA3.1( +). […] On the third day, the activation of the putative receptor was detected by monitoring IP1 accumulation using IP1 detection kit (Cisbio, 62IPAPEB) in Tecan Spark. […]

Platynereis receptor = conditions: annelid Platynereis dumerilii allatostatin C on its putative receptor; cited from earlier work
Text: Growing databases of the Aplysia genome and transcriptome are becoming available, but relatively few studies have taken advantage of this information (see[53],[54]). […] Previous bioinformatic studies in several molluscs predicted the presence of an allatostatin C precursor (Fig. 3, e.g.,[57]) and of AstC with the ...

[1] = average EC50, n = 3, read-out: [EC50] on AstC-R
[2] = average log[EC50], n = 3, read-out: log[EC50] on AstC-R (converted)

Compound | EC50 (AstC-R; [1]) [nM] | EC50 (AstC-R; [2]) [nM] | Screening: IP1 concentration on AstC-R at 10^–5 M vs 10^–10 M (AstC-R) | other results
CSCC[C@H](NC(=O)[C@H](CO)NC(=O)[C@H](CC(N)=O)NC(=O)[C@H](Cc1ccc(O)cc1)NC(=O)[C@H](Cc1c[nH]cn1)NC(=O)[C@@H](N)CO)C(=O)N[C@H]1CSSC[C@@H](C(=O)N[C@@H](Cc2ccc(O)cc2)C(=O)O)NC(=O)[C@H](C)NC(=O)[C@H](C(C)C)NC(=O)[C@H](C(C)C)NC(=O)[C@H](CC(N)=O)NC(=O)[C@H](Cc2ccccc2)NC(=O)[C@H](CCSC)NC1=O [AstC-T] (H-SHYNSMCMFNVVACY-OH; disulfide 7-14) | 17.7 | – | – | –
CSCC[C@H](NC(=O)[C@H](CO)NC(=O)[C@H](CO)NC(=O)[C@H](Cc1ccc(O)cc1)NC(=O)[C@@H](N)[C@@H](C)O)C(=O)N[C@H]1CSSC[C@@H](C(=O)N[C@@H](Cc2ccc(O)cc2)C(=O)O)NC(=O)[C@H](C)NC(=O)[C@H](C(C)C)NC(=O)[C@H](C(C)C)NC(=O)[C@H](CC(N)=O)NC(=O)[C@H](Cc2ccccc2)NC(=O)[C@H](CCSC)NC1=O [AstC-D] (H-TYSSMCMFNVVACY-OH; disulfide 6-13) | 18.9 | 15.8 | – | –
MRYMG1CMKKQYNNF1PFPCLRS-NH2 (disulfide) [SPTR, another Aplysia peptide also with a disulfide bridge, reference compound] | – | – | did not activate AstC-R significantly | –
AVIPVSSPEPMEEASALQLLPGKI-NH2 [AstCG-DP, AstC gene-derived peptide predicted from the Aplysia AstC precursor, C-terminally amidated] | – | – | did not activate AstC-R significantly | IP1 response of Class-A_GPCR1, preliminary experiments (Class-A_GPCR1): none of the receptors responded; IP1 response of AstC-R, preliminary experiments (AstC-R): none of the receptors responded
pQPVQCLVNIVSCWamide (disulfide) [allatostatin C] | – | – | – | EC50 (Platynereis receptor): 1000 nM and 1200 nM
CSCC[C@H](NC(=O)[C@H](CO)NC(=O)[C@H](CO)NC(=O)[C@H](Cc1ccc(O)cc1)NC(=O)[C@H](Cc1c[nH]cn1)NC(=O)[C@@H](N)CO)C(=O)N[C@H]1CSSC[C@@H](C(=O)N[C@@H](Cc2ccc(O)cc2)C(=O)O)NC(=O)[C@H](C)NC(=O)[C@H](C(C)C)NC(=O)[C@H](C(C)C)NC(=O)[C@H](CC(N)=O)NC(=O)[C@H](Cc2ccccc2)NC(=O)[C@H](CCSC)NC1=O [AstC] (H-SHYSSMCMFNVVACY-OH; disulfide 7-14; N-terminus assumed) | 7.8 | 6.31 | significantly increased IP1 concentration | IP1 response of Class-A_GPCR1, preliminary experiments (Class-A_GPCR1): none of the receptors responded; IP1 response of AstC-R, preliminary experiments (AstC-R): none of the receptors responded
CC[C@H](C)[C@H](NC(=O)[C@H](Cc1c[nH]cn1)NC(=O)[C@@H](N)CO)C(=O)N[C@@H](CCCNC(=N)N)C(=O)N[C@H]1CSSC[C@@H](C(=O)N[C@@H](Cc2ccc(O)cc2)C(=O)O)NC(=O)[C@H](C)NC(=O)[C@H]([C@@H](C)CC)NC(=O)[C@H](C(C)C)NC(=O)[C@H](CC(N)=O)NC(=O)[C@H](C(C)C)NC(=O)[C@H](CC(C)C)NC1=O [AstC-C] (H-SHIRCLVNVIACY-OH; disulfide 5-12) | 111 | – | – | –
CC[C@H](C)[C@@H]1NC(=O)[C@H](CC(C)C)NC(=O)[C@H](CC(N)=O)NC(=O)[C@H](C(C)C)NC(=O)[C@H](CC(C)C)NC(=O)[C@@H](NC(=O)[C@H](CCSC)NC(=O)[C@@H](NC(=O)[C@H](Cc2c[nH]cn2)NC(=O)[C@@H](N)CO)C(C)C)CSSC[C@@H](C(=O)N[C@@H](Cc2ccccc2)C(=O)O)NC(=O)[C@H](CO)NC1=O [AstC-L] (H-SHVMCLVNLISCF-OH; disulfide 5-12) | 111 | 63.1 | – | –
